Results from patent US9695463B2, “DNA 5-methyl cytosine demethylation activity of vertebrate DNA methyltransferases” (Academia Sinica, priority 2012, dated 2017).
Each block holds one molecule with its values, some of them ahead of it.

What was measured:
recombinant DNMT3B = target: T1, recombinant DNMT3B (Mus musculus, UniProt O88509); experiment: Effect of Ca2+ and DTT on the C to 5-mC methylation reaction of recombinant DNMT3B (hydrolysis-TLC assay); assay type: biochemical; conditions: 40 nM recombinant DNMT3B, unmethylated pMR1-8, 160 μM SAM, 1 mM CaCl2 or 5 mM DTT, 37°C, 4 h
T1 construct: purchased BPS Bioscience; host or cells: recombinant baculovirus-infected Sf9 insect cells
Experimental: (§1) FIGS. 3A-B show the effects of a reducing condition and SAM on the DNA demethylation and methylation activities of DNMT3B. […] After incubation at 37° C. for 4 h, the DNA products were analyzed by the hydrolysis-TLC assay. The results are quantitatively presented in the histogram. […] After incubation at 37° C. for 4 h, the extents of C methylation of the DNAs from the different reactions were determined by hydrolysis-TLC assay and quantitatively compared in the histogram. Error bars indicate S.D.
Methylation in vitro of unmodified pMR1-8 plasmid DNA by the DNMTs were carried out and analyzed by the hydrolysis-TLC assay. When needed, 1 mM CaCl2 or 5 mM DTT was also included in the reaction mixture.

[1] = test system: DNA demethylation activity of porcine sperm nuclear extract; experiment: In vitro DNA demethylation by porcine sperm nuclear extract (restriction digestion-PCR assay); assay type: biochemical; conditions: for effect on the in vitro DNA demethylation activity of the sperm nuclear extract: 10 mM CaCl2, increasing concentrations of inhibitor (APE-i to 1 mM, 3-AB to 50 mM, THU to 1 mM)
Experimental: The nuclear extracts were prepared from the porcine sperms and 293T cells, respectively, by a modified method. Briefly, the porcine semen was washed three times by PBS buffer and the sperm pellet isolated with FICOLL®. The pellet was resuspended in a hypotonic buffer (10 mM Tris-HCl, pH7.4, 10 mM NaCl, 10 mM EDTA and EDTA-free protease inhibitors) on ice for 15 minutes. The resuspended sperms were passed through a G21 needle 10 times and then centrifuged at 13,200 rpm at 4° C. for 10 min. The supernatant was removed and the pellet of the nuclei was resuspended in a resuspension buffer (10 mM Tris-HCl, pH7.4, 10 mM NaCl, 1.5 mM, MgCl2 and EDTA-free protease inhibitors), and an equal volume of 1M NaCl was added for 30 min incubation on ice.

recombinant mouse DNMT3B = target: T2, recombinant mouse DNMT3B (Mus musculus, UniProt O88509); experiment: Effect of Ca2+, DTT, SAM and H2O2 on the DNA demethylation activity of recombinant DNMT3B (hydrolysis-TLC assay); assay type: biochemical
T2 construct: purchased BPS Bioscience; host or cells: recombinant baculovirus-infected Sf9 insect cells
Experimental: M, mock control without incubation.
as §1
Rx, reactions. […] M, mock control without incubation.

[2] = test system: 5-mC-containing double-stranded DNA substrate; experiment: 5-mC to C conversion by 293T nuclear extracts with exogenously expressed mouse DNMTs (hydrolysis-TLC assay); assay type: biochemical; conditions: 293T nuclear extract with exogenously expressed mouse enzyme, buffer B, 10 mM Ca2+
[3] = test system: 5-mC-containing DNA substrate; experiment: 5-mC to C conversion by recombinant DNMTs (hydrolysis-TLC assay); conditions: 40 nM recombinant DNMT3B, 1 mM CaCl2, 37°C, 2 h (reaction 1)

effect on the 5-C methylation reaction of DNMTs (in words) (recombinant DNMT3B): nor was it affected
Molecule: O[C@H](CS)[C@H](O)CS (racemic) [DTT, dithiothreitol]

Molecule: NC(=O)c1cccc(N)c1 [3-aminobenzamide]
effect on the in vitro DNA demethylation activity of the sperm nuclear extract [1]: little effect

Molecule: O=C(O)c1cc2cccc([N+](=O)[O-])c2[nH]1 [CRT0044876]
effect on the in vitro DNA demethylation activity of the sperm nuclear extract [1]: little effect

effect on the 5-C methylation reaction of DNMTs (in words) (recombinant DNMT3B): did not require
Molecule: [Ca+2].[Cl-].[Cl-] [Ca^2+, CaCl2]
reduction of the extent of DNA methylation ([1]; 1-10 mM Ca2+, fully methylated pMR1-8 plasmid, 37°C, 2 h): 20-50%

Molecule: OO [H2O2]
effect on the enzyme activity of DNMT3B after SAM (in words) (recombinant mouse DNMT3B; 1 mM H2O2 added after reaction 2, another 2 h (reaction 3)): led to the switch of the enzyme activity of DNMT3B from methylation to demethylation again

C converted back to 5-mC (recombinant mouse DNMT3B; 160 μM SAM added after reaction 1, continued 1 h incubation (reaction 2)): more than 60%
Molecule: C[S+](CC[C@H](N)C(=O)O)C[C@H]1O[C@@H](n2cnc3c(N)ncnc32)[C@H](O)[C@@H]1O (some centres unmarked) [SAM, S-adenosylmethionine]

Molecule: O=C1NC(O)CCN1[C@@H]1O[C@H](CO)[C@@H](O)[C@H]1O (some centres unmarked) [tetrahydrouridine]
effect on the in vitro DNA demethylation activity of the sperm nuclear extract [1]: little effect

Molecule: DNMT1: mouse DNA methyltransferase 1 exogenously expressed in 293T nuclear extract (SEQ ID NO: 5)
5-mC residues on the DNA substrate from which the 5-methyl group was removed [2]: approximately 30%

Molecule: DNMT3B: mouse DNA methyltransferase 3B, expressed in 293T nuclear extract or recombinant from BPS Bioscience (SEQ ID NO: 9)
5-mC on the DNA substrate demethylated at the end of the first reaction [3]: approximately 60%
5-mC residues on the DNA substrate from which the 5-methyl group was removed [2]: approximately 30%
